# Reference: patent US20250320190A1, “Novel Inhibitors of Leucine Carboxyl Methyltransferase-1 (LCMT-1) and Methods of Use Thereof” (Temple University-Of The Commonwealth System of Higher …, priority 2024, published 2025)
# Tests used:
# [1] = test system: MDA-MB-231 cells; assay: Cell cycle analysis (BrdU flow cytometry); assay type: cell-based, human; conditions: 20 μM, 24 hours
# Method: (§1) MCF7, MDA-MB-231 and Rosi cells were seeded in 6-well tissue culture plates (Celltreat) at a density of 5×10^5 cells per well. After 24 hours, the DMEM was changed to media containing 20 μM LB-100 or Compound 2. Control cells were given fresh media. After 24 hours, cells were labeled with 50 μM bromodeoxyuridine (BrdU, BioGems, Westlake Village, California, catalog #5911439). Cells were lifted with 0.25% trypsin, 2.21 mM ethylenediaminetetraacetic acid (Corning catalog #25-053-CI) after 4 hours and fixed with 70% ethanol overnight at 4° C. Cells were pelleted and cellular DNA was denatured with HCl. After neutralization with 1 M Tris, pH 8.5, cells were labeled with FITC-anti-BrdU (Biolegend, San Diego, California, catalog #364104, 5 μL/100 μL cell suspension) and 7-aminoactinomycin-D (7-AAD, Biolegend, catalog #420404, 1 μL/100 μL cell suspension). Cells were analyzed with a Becton-Dickinson FACSymphony™ flow cytometer. Cell cycle analyses were performed three times.
# [2] = test system: MCF7 cells; assay: Cell cycle analysis (BrdU flow cytometry); assay type: cell-based, human; conditions: 20 μM, 24 hours
# Method: as §1
# [3] = test system: Rosi cells; assay: Cell cycle analysis (BrdU flow cytometry); assay type: cell-based, human; conditions: 20 μM, 24 hours
# Method: as §1
# [4] = Plasma protein binding; assay type: in vitro ADME; conditions: read-out: Plasma Protein Binding (bound fraction) (converted)
# Source text: There is no cause for concern at this stage since there are multiple strategies and reagents for enhancing aqueous solubility for animal in vivo studies (Savjani, K. T., A. K. Gajjar and J. K. Savjani, 2012, ISRN Pharm 2012: 195727.). […] While target tissue exposure is dependent on free, unbound fractions in the plasma, plasma protein binding can protect compounds from hepatic metabolism. Thus, in vivo metabolism and excretion are often determined by a balance between these two properties. In vivo half-life is a complicated property impacted upon by multiple factors and is difficult to predict. […] While these numbers are somewhat low for a drug candidate, they are acceptable for proof of concept tool molecules which can be given multiple times per day and at higher doses to saturate metabolism.
# [5] = test system: SCC-15 cells; assay: Western blots (pMLKL, ACSL4) with and without irradiation; assay type: cell-based, human; conditions: alone or with irradiation
# Method: (§2) To better understand cellular outcomes associated with combining LCMT-li with radiotherapy (Adjemian, S. et al., 2020, Cell Death Dis 11(11): 1003), SCC-15, SCC-25, UM-SCC-12, UM-SCC-14a and UM-SCC-49 cells were treated with LCMT-li, radiotherapy or both as described for Annexin V assays. UM-SCC-69 cells were not used for immunoblots because insufficient numbers of cells survived irradiation to obtain sufficient lysates. After 24 hours, cells were lysed in radioimmunoprecipitation assay buffer containing protease inhibitors (Boster Bio, Pleasanton, California, catalog #AR1182-1) and phosphatase inhibitors (Santa Cruz Biotechnology catalog #sc-45044 and #sc-45045). Protein concentrations were measured with a bicinchoninic acid assay (G-Biosciences, Saint Louis, Missouri). Fifty micrograms of each lysate were used for bis-tris polyacrylamide gel electrophoresis. Resolved lysates were transferred to nitrocellulose membranes. Membranes were blocked with TBS with 5% bovine serum albumin before incubation with primary antibodies.
# (§3) The anti-phospho-mixed lineage kinase domain like pseudokinase (pMLKL) antibody was obtained from R&D Systems (Minneapolis, Minnesota, catalog #MAB9187-100, 1:1,000 dilution). Antibodies obtained from Proteintech (Rosemont, Illinois) included anti-MLKL (catalog #66675-1-Ig, 1:5,000 dilution) and anti-β-actin (catalog #66009-1-Ig, 1:50,000 dilution). The anti-long-chain-fatty-acid-Coenzyme A ligase 4 (ACSL4) antibody was obtained from Santa Cruz Biotechnology (Dallas, Texas, catalog #sc-365230, 1:1,000 dilution). Appropriate IR-dye secondary antibodies obtained from Jackson ImmunoResearch Laboratories (West Grove, Pennsylvania) were used (Alexa Fluor® 790-conjugated anti-mouse (catalog #115-655-146, 1:50,000 dilution), Alexa Fluor® 680-conjugated anti-mouse (catalog #115-625-146, 1:50,000 dilution), and Alexa Fluor® 680-conjugated anti-rabbit (catalog #115-625-144, 1:50,000 dilution). Band densities were normalized to β-actin, the endogenous control. Twelve replicates were used for statistical analyses.
# [6] = test system: SCC-25 cells; assay: as above; assay type: cell-based, human; conditions: alone and in combination with irradiation
# Method: as §2, §3
# [7] = test system: UM-SCC-12 cells; assay: as above; assay type: cell-based, human; conditions: LCMT-li alone
# Method: as §2, §3
# [8] = test system: Jurkat cells; assay: Cytotoxicity assay (Ghost Dye 710 flow cytometry); assay type: cell-based; conditions: Homo sapiens, 48 hours
# Method: (§4) Jurkat and THP-1 cells were seeded in 6-well plates at a density of 2.5×10^5 cells/mL. After 24 hours LCMT-li was added at various concentrations. After 48 hours, cells were pelleted and washed twice with ice-cold phosphate-buffered saline (PBS). Cells were stained with Ghost Dye™ 710 (Cytek®, Bethesda, Maryland) viability dye, 0.1 μL/mL in PBS on ice in the dark for 30 minutes. Cells were pelleted and washed twice with ice-cold PBS with 10% FBS. Cells were pelleted and fixed with 4% formaldehyde in PBS on ice for 15 minutes. Cells were pelleted and resuspended in PBS with 5% bovine serum albumin (BSA). Cells were analyzed with a Becton-Dickinson FACSymphony™ flow cytometer with at least 3 replicates; 3×10^4 cells were analyzed with each replicate for statistical significance.
# (§5) Statistical analyses were performed with GraphPad Prism software (version 10.4.1). Effective concentrations that inhibited 50% of cells (EC50, log agonist versus response) were estimated with nonlinear fit curves. Absorbance values for cytotoxity assays and relative densities for Western blot assays were compared using Kruskal-Wallis analyses of variance with Dunn's correction for multiple comparisons. For flow cytometric analyses, two-way analyses of variance with Tukey's correction for multiple comparisons were used.
# [9] = test system: THP-1 cells; assay: Cytotoxicity assay (Ghost Dye 710 flow cytometry); assay type: cell-based; conditions: Homo sapiens, 48 hours
# Method: as §4, §5
# [10] = test system: MDA-MB-231 cells; assay: Cytotoxicity assay (calcein-AM); assay type: cell-based, human; conditions: MDA-MB-231, 48 hours
# Method: HS-5, HEK-293, MCF7, MDA-MB-231 and Rosi cells were seeded in 96-well optical bottom tissue culture plates (Corning, New York) at a density of 2.5×10^3 cells/well. After 24 hours, the media were changed to media containing LB-100 (Cayman Chemical Company, Ann Arbor, Michigan) or Compound 2 at various concentrations (50-0.31 μM). Control cells were given fresh media. After 48 hours the media were aspirated and plates were washed with warmed Dulbecco's phosphate-buffered saline (DPBS) with calcium and magnesium (Sigma-Aldrich, catalog #D1283). Cells were stained with 3 μM calcein-AM (AAT Bioquest, Pleasanton, California, catalog #22002) in DPBS for 30 minutes in the dark at 37° C. Plates were immediately read with a Biotek fluorescent plate reader (excitation 485 nm, emission 520 nm). The cytotoxicity assays were performed at least three times, each time with six replicates per condition.
compound,measurement,setting,value
"COC(=O)c1c(NC(=O)c2ccccc2C)sc(C(=O)Nc2cccc(C)c2)c1C [Compound 2, methyl 4-methyl-2-[(2-methylbenzoyl)amino]-5-[[(3-methylphenyl)amino]carbonyl]-3-thiophenecarboxylate]",cell cycle effect,[1],did not change cell cycle dynamics
same,cell cycle effect,[2],did not change cell cycle dynamics
same,cell cycle effect,[3],induced G0/G1 arrest
same,fraction unbound,[4],0.029
same,necroptosis (pMLKL) and ferroptosis (ACSL4),[5],did not induce necroptosis or ferroptosis
same,necroptosis (pMLKL expression),[6],increased necroptosis
same,necroptosis (pMLKL) and ferroptosis (ACSL4),[7],increased necroptosis and ferroptosis
same,EC50,[8],224 µM
same,EC50,[9],10.4 µM
same,EC50,"[10]; Homo sapiens, read-out: Log [μM] EC50 (converted)",3.89 µM
same,concentration at which survival was significantly inhibited,[10],25 µM
